The text below walks through data of patent US10105343B2, “Cannabis based compositions and methods of treating hypertension” (KUBBY PATENT AND LICENSES, LIMITED LIABILITY COMPANY, priority 2010, dated 2018).

This data set concerns hypertension. The data set can be described thus: Inventor's own case: control of hypertension in adrenal cancer (anecdotal patient report). As to conditions: single patient (the inventor). Format: in vivo, human. From the text: In 1999, this inventor's doctors told them that after completing extensive medical tests at the University of Southern California's School of Medicine their prognosis was poor. According to Dr. Vincent DeQuattro, a USC professor and world authority on adrenal cancer, their blood contained deadly levels of adrenaline, more than enough to kill anyone else.
Nearly everyone else who has ever had the malignant form of the inventor's disease has died within a few years. The inventor credits their survival, now 35 years since their diagnosis, to medical marijuana, something DeQuattro considered a “medical miracle.” Dr. DeQuattro has written that the inventor could suffer a heart attack or stroke if deprived of marijuana and that no other form of therapy is available.
Despite the seriousness and dramatic dangers of their disease, a person was arrested and jailed for using the only medicine that worked for them. During their first few days of incarceration, they experienced excruciating pain, a vicious high blood-pressure crisis, passed blood in their urine and over a period of 60 days, and lost 33 pounds.
That's when […] started to experiment with lozenges to see if […] could create a natural cannabis based lozenge that would control hypertension, without undesirable side effects.
This led the Inventor to the development that is taught in this invention.

For `CCCCCc1cc(O)c2c(c1)OC(C)(C)[C@@H]1CCC(C)=C[C@@H]21` [Marinol, tetrahydrocannabinol], the undesirable side effects entry is listed as “constant nausea”. Moreover, the controlling hypertension result (adrenal cancer with deadly adrenaline levels) is “extremely effective”. Moreover, the “substitute for whole cannabis in treating the inventor's otherwise fatal disease” value (during incarceration) is on record as “acceptable, if not ideal, substitute”.
